1 compound from patent US10973807B2, “Pharmaceutical composition comprising pyrrolo-fused six-membered heterocyclic compound” (Jiangsu Hengrui Medicine Co., Ltd., priority 2016, dated 2021) can be followed below.

Data set [1] can be described thus: Stability in the presence of moisture. It is filed as physicochemical. The settings on record: compound or a pharmaceutically acceptable salt thereof.
Data set [2] in a line: Water solubility. The format is physicochemical. The settings on record: compound or a pharmaceutically acceptable salt thereof.

Take `CCN(CC)CCN1CCc2[nH]c(/C=C3\C(=O)Nc4ccc(F)cc43)c(C)c2C1=O.O=C(O)C[C@H](O)C(=O)O` [compound of formula (I), 5-(2-diethylamino-ethyl)-2-(5-fluoro-2-oxo-1,2-dihydro-indol-3-ylidene-methyl)-3-methyl-1,5,6,7-tetrahydro-pyrrolo[3,2-c]pyridin-4-one]: the “stability in the presence of moisture” value in data set [1] is “unstable”. In addition, the water solubility entry in data set [2] is on record as “poor”.
